Results taken from US20100126386A1, “RADIATION-CURABLE COATING SUBSTANCES” (Basf Aktiengesellschaft, priority 2004, published 2010).

Assay: Testing of the NIR sensitizers in photoinitiator mixtures (exposure of thin coats with halogen lamp)
Conditions: 0.5% by weight NIR sensitizer and 1.5% by weight boronate salt X in the paint base materials
Procedure: The two aforementioned paint base materials were admixed with 0.5% by weight of each NIR sensitizer and 1.5% by weight of the boronate salt X^− and the mixtures were stirred intensively. Thin coats (coat thickness approximately 50 μm) were produced with the resulting mixtures between two glass plates, using spacer sheets. These coats were exposed using a 250 W halogen lamp (distance approximately 15 cm) for 1 minute.

Row | SMILES | dissolution of the NIR sensitizer in the paint base material
1 | CCN1/C(=C/C=C2\CCCC(/C=C/C3=[N+](CC)c4ccc(C#N)cc4C3(C)C)=C2Cl)C(C)(C)c2cc(C#N)ccc21 [Compound B12] | not completely dissolved
2 | CN1\C(=C/C=C/C=C/C=C/C2=[N+](C)c3ccc(Cl)cc3C2(C)C)C(C)(C)c2cc(Cl)ccc21 [Compound A7] | fully dissolved
3 | CN1\C(=C/C=C/C=C/C=C/C2=[N+](C)c3ccc(Cl)cc3C2(C)C)C(C)(C)c2cc(Cl)ccc21 [Compound B7] | not completely dissolved
4 | CCN1/C(=C/C=C2\CCCC(/C=C/C3=[N+](CC)c4ccc(C(F)(F)F)cc4C3(C)C)=C2Cl)C(C)(C)c2cc(C(F)(F)F)ccc21 [Compound A11] | fully dissolved
5 | CCN1/C(=C/C=C2\CCCC(/C=C/C3=[N+](CC)c4ccc(C(F)(F)F)cc4C3(C)C)=C2Cl)C(C)(C)c2cc(C(F)(F)F)ccc21 [Compound B11] | not completely dissolved
6 | CCN1/C(=C/C=C2\CCCC(/C=C/C3=[N+](CC)c4ccc(C#N)cc4C3(C)C)=C2Cl)C(C)(C)c2cc(C#N)ccc21 [Compound A12] | fully dissolved
